What was measured:
HepG2 cells [1] = test: Mitochondrial membrane potential assay (TMRE); type: cell-based, human; details: 10 μM, one day
In short: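 HepG2 cells treated with compounds at the chosen concentration and time, then assayed with kits for TMRE, autophagy, DCFDA ROS or lipid peroxidation. Fluorescence intensity measured from ROI in images or by microplate reader in triplicate (GFP Ex480/Em530 nm, RFP Ex549/Em574 nm).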

HepG2 cells [2] = test: Invasion assay (transwell); type: cell-based, human; details: Homo sapiens, HepG2, 24 hr, read-out: invasiveness reduced by
In short: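 HepG2 cells (100,000) in serum-free medium with compounds placed on collagen-coated 8 μm transwell membranes, with 10% FBS medium below as attractant. After one day at 37 °C, cells fixed in formaldehyde and stained with crystal violet. Invaded cells on the outer membrane imaged and counted.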

[3] = In vivo toxicological study in rats: plasma chemistry; set-up: species or system rats of the Wistar strain
Protocol: Forty-two male and forty-two female rats of the Wistar strain were allocated to the study. Three groups of three males and three females were given doses of 30, 100 and 300 mg/kg of target compounds (Table 8). The vehicle was 1.5 w/w % HPMC, 1.5 w/w % PS80 in 10 mM PBS, pH 7 and dose volume were 5 mL/kg. The animals were acclimatised at least 14 day prior to the study and exposed to a 12 hours light, 12 hours dark light cycle. The formulations were administered via oral gavage. Administration occurred once daily in the morning for seven consecutive days. Blood for scheduled haematology and plasma chemistry were taken at necropsy. For plasma chemistry, 0.6 ml blood (lithium heparin) per animal and for haematology, 0.5 ml blood (K2EDTA) per animal. The blood and plasma were analysed using Exigo analyzer and Vetscan equipment. Blood samples were kept in room temperature […] after collection and mixing. The blood samples were analysed as whole blood within 60 min of collection. The VetScan analyser was calibrated with calibration samples of known plasma levels of each parameter before start of analysis, occasionally during the analysis period of study samples and after completed analyses (Table 10).

[4] = female, 30 mg/kg oral daily 7 d
[5] = female, 100 mg/kg oral daily 7 d
[6] = female, 300 mg/kg oral daily 7 d

With `N#Cc1c(NC(=O)c2cccc3ccccc23)sc2c1CCCC2` [JNK-IN-5A, N-(3-cyano-4,5,6,7-tetrahydrobenzo[b]thiophen-2-yl)-1-naphthamide] the mitochondrial membrane potential (HepG2 cells [1]) was “significantly decreased” and the inhibition at 1 µM (HepG2 cells [2]) was 24.9%.
In the case of `COc1ccc(C(=O)Nc2sc3c(c2C#N)CCCCC3)cc1OC` [PKL-A135, N-(3-cyano-5,6,7,8-tetrahydro-4H-cyclohepta[b]thiophen-2-yl)-3,4-dimethoxy-benzamide], the mitochondrial membrane potential (HepG2 cells [1]) is reported as “significantly decreased”, the ALB [3, 4] is reported as 56 g/L and the ALP [3, 4] is reported as 117 U/L. It also gave an ALT [3, 4] of 23 U/L, an AMY [3, 4] of 564 U/L and a BUN [3, 4] of 6.0 mmol/L. The CA [3, 4] was 2.91 mmol/L, the CRE [3, 4] was 31 µmol/L and the GLOB [3, 4] was 8 g/L. The GLU [3, 4] was 8.1 mmol/L, the “K+” value [3, 4] was 4.6 mmol/L and the “NA+” value [3, 4] was 141 mmol/L. For the same compound, the PHOS [3, 4] was 2.30 mmol/L, the TBIL [3, 4] was 5.3 µmol/L and the TP [3, 4] was 64 g/L. For the same compound, the ALB [3, 5] was 59 g/L, the ALP [3, 5] was 126 U/L and the ALT [3, 5] was 23 U/L. The AMY [3, 5] was 589 U/L, the BUN [3, 5] was 5.7 mmol/L and the CA [3, 5] was 2.96 mmol/L. For the same compound, the CRE [3, 5] was 44 µmol/L, the GLOB [3, 5] was 11 g/L and the GLU [3, 5] was 7.9 mmol/L. For the same compound, the “K+” value [3, 5] was 4.4 mmol/L, the “NA+” value [3, 5] was 140 mmol/L and the PHOS [3, 5] was 2.34 mmol/L. For the same compound, the TBIL [3, 5] was 5.0 µmol/L, the TP [3, 5] was 71 g/L and the ALB [3, 6] was 59 g/L. The ALP [3, 6] was 156 U/L, the ALT [3, 6] was 20 U/L and the AMY [3, 6] was 590 U/L. The BUN [3, 6] was 5.3 mmol/L, the CA [3, 6] was 3.00 mmol/L and the CRE [3, 6] was 41 µmol/L. For the same compound, the GLOB [3, 6] was 9 g/L, the GLU [3, 6] was 7.8 mmol/L and the “K+” value [3, 6] was 4.6 mmol/L. For the same compound, the “NA+” value [3, 6] was 142 mmol/L, the PHOS [3, 6] was 2.91 mmol/L and the TBIL [3, 6] was 5.3 µmol/L. The TP [3, 6] was 67 g/L, the ALB ([3]; male, 30 mg/kg oral daily 7 d) was 50 g/L and the ALP ([3]; male, 30 mg/kg oral daily 7 d) was 234 U/L. For the same compound, the ALT ([3]; male, 30 mg/kg oral daily 7 d) was 33 U/L, the AMY ([3]; male, 30 mg/kg oral daily 7 d) was 757 U/L and the BUN ([3]; male, 30 mg/kg oral daily 7 d) was 5.6 mmol/L. For the same compound, the CA ([3]; male, 30 mg/kg oral daily 7 d) was 3.01 mmol/L, the CRE ([3]; male, 30 mg/kg oral daily 7 d) was 39 µmol/L and the GLOB ([3]; male, 30 mg/kg oral daily 7 d) was 15 g/L. For the same compound, the GLU ([3]; male, 30 mg/kg oral daily 7 d) was 8.5 mmol/L, the “K+” value ([3]; male, 30 mg/kg oral daily 7 d) was 4.80 mmol/L and the “NA+” value ([3]; male, 30 mg/kg oral daily 7 d) was 140 mmol/L. For the same compound, the PHOS ([3]; male, 30 mg/kg oral daily 7 d) was 2.20 mmol/L, the TBIL ([3]; male, 30 mg/kg oral daily 7 d) was 5.0 µmol/L and the TP ([3]; male, 30 mg/kg oral daily 7 d) was 65 g/L. It also gave an ALB ([3]; male, 100 mg/kg oral daily 7 d) of 50 g/L, an ALP ([3]; male, 100 mg/kg oral daily 7 d) of 259 U/L and an ALT ([3]; male, 100 mg/kg oral daily 7 d) of 25 U/L. It also gave an AMY ([3]; male, 100 mg/kg oral daily 7 d) of 770 U/L, a BUN ([3]; male, 100 mg/kg oral daily 7 d) of 5.6 mmol/L and a CA ([3]; male, 100 mg/kg oral daily 7 d) of 2.95 mmol/L. For the same compound, the CRE ([3]; male, 100 mg/kg oral daily 7 d) was 36 µmol/L, the GLOB ([3]; male, 100 mg/kg oral daily 7 d) was 12 g/L and the GLU ([3]; male, 100 mg/kg oral daily 7 d) was 8.9 mmol/L. The “K+” value ([3]; male, 100 mg/kg oral daily 7 d) was 4.83 mmol/L, the “NA+” value ([3]; male, 100 mg/kg oral daily 7 d) was 138 mmol/L and the PHOS ([3]; male, 100 mg/kg oral daily 7 d) was 2.51 mmol/L. It also gave a TBIL ([3]; male, 100 mg/kg oral daily 7 d) of 4.7 µmol/L, a TP ([3]; male, 100 mg/kg oral daily 7 d) of 61 g/L and an ALB ([3]; male, 300 mg/kg oral daily 7 d) of 50 g/L. It also gave an ALP ([3]; male, 300 mg/kg oral daily 7 d) of 275 U/L, an ALT ([3]; male, 300 mg/kg oral daily 7 d) of 28 U/L and an AMY ([3]; male, 300 mg/kg oral daily 7 d) of 835 U/L. It also gave a BUN ([3]; male, 300 mg/kg oral daily 7 d) of 5.7 mmol/L, a CA ([3]; male, 300 mg/kg oral daily 7 d) of 2.98 mmol/L and a CRE ([3]; male, 300 mg/kg oral daily 7 d) of 38 µmol/L. The GLOB ([3]; male, 300 mg/kg oral daily 7 d) was 13 g/L, the GLU ([3]; male, 300 mg/kg oral daily 7 d) was 9.0 mmol/L and the “K+” value ([3]; male, 300 mg/kg oral daily 7 d) was 5.2 mmol/L. The “NA+” value ([3]; male, 300 mg/kg oral daily 7 d) was 140 mmol/L, the PHOS ([3]; male, 300 mg/kg oral daily 7 d) was 2.64 mmol/L and the TBIL ([3]; male, 300 mg/kg oral daily 7 d) was 5.0 µmol/L. For the same compound, the TP ([3]; male, 300 mg/kg oral daily 7 d) was 63 g/L and the inhibition at 1 µM (HepG2 cells [2]) was 29.5%.
`COc1ccccc1NC(=O)N1CCc2c(sc(NC(=O)c3cccc4ccccc34)c2C#N)C1` [PKL-A152] showed an ALB [3, 4] of 56 g/L, an ALP [3, 4] of 84 U/L and an ALT [3, 4] of 23 U/L. For the same compound, the AMY [3, 4] was 548 U/L, the BUN [3, 4] was 4.9 mmol/L and the CA [3, 4] was 2.90 mmol/L. The CRE [3, 4] was 44 µmol/L, the GLOB [3, 4] was 7 g/L and the GLU [3, 4] was 8.0 mmol/L. The “K+” value [3, 4] was 2.9 mmol/L, the “NA+” value [3, 4] was 148 mmol/L and the PHOS [3, 4] was 2.28 mmol/L. It also gave a TBIL [3, 4] of 4.0 µmol/L, a TP [3, 4] of 64 g/L and an ALB [3, 5] of 58 g/L. It also gave an ALP [3, 5] of 162 U/L, an ALT [3, 5] of 20 U/L and an AMY [3, 5] of 573 U/L. It also gave a BUN [3, 5] of 6.0 mmol/L, a CA [3, 5] of 2.87 mmol/L and a CRE [3, 5] of 48 µmol/L. The GLOB [3, 5] was 8 g/L, the GLU [3, 5] was 7.8 mmol/L and the “K+” value [3, 5] was 4.5 mmol/L. For the same compound, the “NA+” value [3, 5] was 139 mmol/L, the PHOS [3, 5] was 2.38 mmol/L and the TBIL [3, 5] was 4.7 µmol/L. For the same compound, the TP [3, 5] was 66 g/L, the ALB [3, 6] was 56 g/L and the ALP [3, 6] was 134 U/L. For the same compound, the ALT [3, 6] was 21 U/L, the AMY [3, 6] was 539 U/L and the BUN [3, 6] was 5.2 mmol/L. For the same compound, the CA [3, 6] was 2.92 mmol/L, the CRE [3, 6] was 51 µmol/L and the GLOB [3, 6] was 8 g/L. For the same compound, the GLU [3, 6] was 7.7 mmol/L, the “K+” value [3, 6] was 4.8 mmol/L and the “NA+” value [3, 6] was 140 mmol/L. The PHOS [3, 6] was 2.39 mmol/L, the TBIL [3, 6] was 4.7 µmol/L and the TP [3, 6] was 64 g/L. The ALB ([3]; male, 30 mg/kg oral daily 7 d) was 50 g/L, the ALP ([3]; male, 30 mg/kg oral daily 7 d) was 272 U/L and the ALT ([3]; male, 30 mg/kg oral daily 7 d) was 30 U/L. For the same compound, the AMY ([3]; male, 30 mg/kg oral daily 7 d) was 837 U/L, the BUN ([3]; male, 30 mg/kg oral daily 7 d) was 5.7 mmol/L and the CA ([3]; male, 30 mg/kg oral daily 7 d) was 2.99 mmol/L. It also gave a CRE ([3]; male, 30 mg/kg oral daily 7 d) of 42 µmol/L, a GLOB ([3]; male, 30 mg/kg oral daily 7 d) of 13 g/L and a GLU ([3]; male, 30 mg/kg oral daily 7 d) of 8.0 mmol/L. For the same compound, the “K+” value ([3]; male, 30 mg/kg oral daily 7 d) was 4.6 mmol/L, the “NA+” value ([3]; male, 30 mg/kg oral daily 7 d) was 140 mmol/L and the PHOS ([3]; male, 30 mg/kg oral daily 7 d) was 2.11 mmol/L. It also gave a TBIL ([3]; male, 30 mg/kg oral daily 7 d) of 4.0 µmol/L, a TP ([3]; male, 30 mg/kg oral daily 7 d) of 63 g/L and an ALB ([3]; male, 100 mg/kg oral daily 7 d) of 51 g/L. It also gave an ALP ([3]; male, 100 mg/kg oral daily 7 d) of 267 U/L, an ALT ([3]; male, 100 mg/kg oral daily 7 d) of 25 U/L and an AMY ([3]; male, 100 mg/kg oral daily 7 d) of 838 U/L. The BUN ([3]; male, 100 mg/kg oral daily 7 d) was 5.7 mmol/L, the CA ([3]; male, 100 mg/kg oral daily 7 d) was 2.98 mmol/L and the CRE ([3]; male, 100 mg/kg oral daily 7 d) was 42 µmol/L. The GLOB ([3]; male, 100 mg/kg oral daily 7 d) was 12 g/L, the GLU ([3]; male, 100 mg/kg oral daily 7 d) was 8.2 mmol/L and the “K+” value ([3]; male, 100 mg/kg oral daily 7 d) was 4.7 mmol/L. The “NA+” value ([3]; male, 100 mg/kg oral daily 7 d) was 141 mmol/L, the PHOS ([3]; male, 100 mg/kg oral daily 7 d) was 2.57 mmol/L and the TBIL ([3]; male, 100 mg/kg oral daily 7 d) was 5.0 µmol/L. For the same compound, the TP ([3]; male, 100 mg/kg oral daily 7 d) was 63 g/L, the ALB ([3]; male, 300 mg/kg oral daily 7 d) was 49 g/L and the ALP ([3]; male, 300 mg/kg oral daily 7 d) was 244 U/L. The ALT ([3]; male, 300 mg/kg oral daily 7 d) was 28 U/L, the AMY ([3]; male, 300 mg/kg oral daily 7 d) was 854 U/L and the BUN ([3]; male, 300 mg/kg oral daily 7 d) was 5.5 mmol/L. It also gave a CA ([3]; male, 300 mg/kg oral daily 7 d) of 3.04 mmol/L, a CRE ([3]; male, 300 mg/kg oral daily 7 d) of 51 µmol/L and a GLOB ([3]; male, 300 mg/kg oral daily 7 d) of 14 g/L. The GLU ([3]; male, 300 mg/kg oral daily 7 d) was 8.6 mmol/L, the “K+” value ([3]; male, 300 mg/kg oral daily 7 d) was 4.5 mmol/L and the “NA+” value ([3]; male, 300 mg/kg oral daily 7 d) was 143 mmol/L. It also gave a PHOS ([3]; male, 300 mg/kg oral daily 7 d) of 2.47 mmol/L, a TBIL ([3]; male, 300 mg/kg oral daily 7 d) of 4.7 µmol/L and a TP ([3]; male, 300 mg/kg oral daily 7 d) of 63 g/L.
